Test results as given in patent publication US11109593B2, “Isoxazolin-5-one derivative and herbicide containing same as active ingredient” (HOKKO CHEMICAL INDUSTRY CO., LTD., priority 2017, dated 2021).

Experiments:
Format in all cases: in vivo
[1] = system: Echinochloa crus-galli; assay: Test Example 3: herbicidal effect test by treatment of dry field farming soil (one day after seeding); conditions: 120 g/10a active ingredient, evaluated 14 days after treatment
Experimental: (§1) This test was conducted in a double system per one agent solution concentration area, and the herbicidal rates (%) were determined by the following equation (Math. 1) on 14 days after the treatment with the agents. Herbicidal Rate (%)={1-(Average Dry Weight (g) of Plant of Treated Area)/(Average Dry Weight (g) of Plant of Untreated Area)}×100 [Math. 1]
(§2) Herbicidal Effect Test by Treatment of Dry Field Farming Soil
(§3) Pots with a size of 36 cm^2 were filled with a dry field farming soil (alluvium). The soil of the top layer of 1 cm and seeds of weeds, namely southern crabgrass, Echinochloa crus-galli, Chenopodium album and Amaranthus viridis, 20 seeds each, were evenly mixed, and the top layer was gently pressed. Emulsions prepared using the compounds in Table 5 below according to Formulation Example 5 were diluted with water one day after seeding, and the water-diluted agent solutions were sprayed to the soil surfaces at a ratio of 100 liters per 10 ares. The converted amount of the applied active ingredient corresponded to 120 g per 10 ares. The herbicidal effects were evaluated by the same standard as that in Test Example 1 on 14 days after the treatment with the agents. […] The compound numbers in Table 5 are the same as those in Table 1 and Table 2 above.

[2] = system: southern crabgrass; assay: as above; conditions: 120 g/10a active ingredient, evaluated 14 days after treatment
Experimental: as §1, §2, §3

[3] = system: Amaranthus viridis; assay: as above; conditions: 120 g/10a active ingredient, evaluated 14 days after treatment
Experimental: as §1, §2, §3

[4] = system: Chenopodium album; assay: as above; conditions: 120 g/10a active ingredient, evaluated 14 days after treatment
Experimental: as §1, §2, §3

[5] = system: Echinochloa crus-galli; assay: Test Example 1: herbicidal effect test by treatment of rice paddy soil (immediately after seeding); conditions: 120 g/10a active ingredient, dry weight vs untreated area, 14 days after treatment
Method in brief: (§4)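 Flooded paddy pot test in a glass greenhouse: emulsion diluted in water, dropped at 120 g a.i. per 10 ares just after sowing, water depth kept about 3 cm. Dry-weight reduction relative to untreated plants is scored at 14 days.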

[6] = system: broad leaf weeds (Lindernia pyxidaria and Monochoria vaginalis); assay: as above; conditions: 120 g/10a active ingredient, dry weight vs untreated area, 14 days after treatment
Method in brief: as §4

[7] = system: Scirpus juncoides; assay: as above; conditions: 120 g/10a active ingredient, dry weight vs untreated area, 14 days after treatment
Method in brief: as §4

[8] = system: Echinochloa crus-galli; assay: Test Example 2: herbicidal effect test by treatment during growing period in paddy rice cultivation (seven days after seeding); conditions: 120 g/10a active ingredient, assessed 14 days after treatment, dry weight vs untreated area
Method in brief: (§5)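 Post-emergence paddy water application: compounds were formulated as emulsions, diluted and dropped into flooded pots seven days after sowing at a rate equivalent to 120 g per 10 ares. Efficacy was taken as dry-weight reduction relative to untreated controls after 14 days.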

[9] = system: broad leaf weeds (Lindernia pyxidaria and Monochoria vaginalis); assay: as above; conditions: 120 g/10a active ingredient, assessed 14 days after treatment, dry weight vs untreated area
Method in brief: as §5

[10] = system: Scirpus juncoides; assay: as above; conditions: 120 g/10a active ingredient, assessed 14 days after treatment, dry weight vs untreated area
Method in brief: as §5

## Cc1c(Cc2ccccc2NS(=O)(=O)C(F)(F)F)c(=O)on1C(C)c1ccccc1 (stereo not drawn) [Compound 1-203]
[1]
  herbicidal rate, Echinochloa crus-galli: 60%
[2]
  herbicidal rate, southern crabgrass: 90%
[3]
  herbicidal rate, Amaranthus viridis: 40%
[4]
  herbicidal rate, Chenopodium album: 40%
[5]
  Herbicidal rate (%) Echinochloa crus-galli: 90%
[6]
  Herbicidal rate (%) Lindernia pyxidaria: 100%
  Herbicidal rate (%) Monochoria vaginalis: 100%
[7]
  Herbicidal rate (%) Scirpus juncoides: 90%
[8]
  Herbicidal rate (%) Echinochloa crus-galli: 90%
[9]
  Herbicidal rate (%) Lindernia pyxidaria: 90%
  Herbicidal rate (%) Monochoria vaginalis: 90%
[10]
  Herbicidal rate (%) Scirpus juncoides: 90%

## Cc1c(Cc2ccccc2NS(=O)(=O)C(F)(F)F)c(=O)on1CCc1ccccc1 [Compound 1-216]
[1]
  herbicidal rate, Echinochloa crus-galli: 60%
[2]
  herbicidal rate, southern crabgrass: 70%
[3]
  herbicidal rate, Amaranthus viridis: 40%
[4]
  herbicidal rate, Chenopodium album: 0%
[5]
  Herbicidal rate (%) Echinochloa crus-galli: 90%
[6]
  Herbicidal rate (%) Lindernia pyxidaria: 100%
  Herbicidal rate (%) Monochoria vaginalis: 100%
[7]
  Herbicidal rate (%) Scirpus juncoides: 100%
[8]
  Herbicidal rate (%) Echinochloa crus-galli: 90%
[9]
  Herbicidal rate (%) Lindernia pyxidaria: 100%
  Herbicidal rate (%) Monochoria vaginalis: 100%
[10]
  Herbicidal rate (%) Scirpus juncoides: 90%

## Cc1c(Cc2ccccc2NS(=O)(=O)C(F)(F)F)c(=O)on1CCCc1ccccc1 [Compound 1-221]
[1]
  herbicidal rate, Echinochloa crus-galli: 70%
[2]
  herbicidal rate, southern crabgrass: 50%
[3]
  herbicidal rate, Amaranthus viridis: 50%
[4]
  herbicidal rate, Chenopodium album: 40%
[5]
  Herbicidal rate (%) Echinochloa crus-galli: 90%
[6]
  Herbicidal rate (%) Lindernia pyxidaria: 70%
  Herbicidal rate (%) Monochoria vaginalis: 60%
[7]
  Herbicidal rate (%) Scirpus juncoides: 80%
[8]
  Herbicidal rate (%) Echinochloa crus-galli: 60%
[9]
  Herbicidal rate (%) Lindernia pyxidaria: 40%
  Herbicidal rate (%) Monochoria vaginalis: 40%
[10]
  Herbicidal rate (%) Scirpus juncoides: 40%

## Cc1c(Cc2ccccc2NS(=O)(=O)C(F)(F)F)c(=O)on1C1CCCc2ccccc21 (stereo not drawn) [Compound 1-224]
[1]
  herbicidal rate, Echinochloa crus-galli: 100%
[2]
  herbicidal rate, southern crabgrass: 100%
[3]
  herbicidal rate, Amaranthus viridis: 100%
[4]
  herbicidal rate, Chenopodium album: 90%
[5]
  Herbicidal rate (%) Echinochloa crus-galli: 100%
[6]
  Herbicidal rate (%) Lindernia pyxidaria: 100%
  Herbicidal rate (%) Monochoria vaginalis: 100%
[7]
  Herbicidal rate (%) Scirpus juncoides: 90%
[8]
  Herbicidal rate (%) Echinochloa crus-galli: 90%
[9]
  Herbicidal rate (%) Lindernia pyxidaria: 60%
  Herbicidal rate (%) Monochoria vaginalis: 80%
[10]
  Herbicidal rate (%) Scirpus juncoides: 80%

## Cc1c(Cc2ccccc2NS(=O)(=O)C(F)(F)F)c(=O)on1CC1(C)COC1 [Compound 1-229]
[1]
  herbicidal rate, Echinochloa crus-galli: 40%
[2]
  herbicidal rate, southern crabgrass: 60%
[3]
  herbicidal rate, Amaranthus viridis: 60%
[4]
  herbicidal rate, Chenopodium album: 40%
[5]
  Herbicidal rate (%) Echinochloa crus-galli: 70%
[6]
  Herbicidal rate (%) Lindernia pyxidaria: 80%
  Herbicidal rate (%) Monochoria vaginalis: 100%
[7]
  Herbicidal rate (%) Scirpus juncoides: 90%
[8]
  Herbicidal rate (%) Echinochloa crus-galli: 70%
[9]
  Herbicidal rate (%) Lindernia pyxidaria: 60%
  Herbicidal rate (%) Monochoria vaginalis: 90%
[10]
  Herbicidal rate (%) Scirpus juncoides: 90%

## Cc1c(Cc2ccccc2NS(=O)(=O)C(F)(F)F)c(=O)on1CCOc1ccccc1 [Compound 1-237]
[1]
  herbicidal rate, Echinochloa crus-galli: 50%
[2]
  herbicidal rate, southern crabgrass: 50%
[3]
  herbicidal rate, Amaranthus viridis: 80%
[4]
  herbicidal rate, Chenopodium album: 40%
[5]
  Herbicidal rate (%) Echinochloa crus-galli: 90%
[6]
  Herbicidal rate (%) Lindernia pyxidaria: 90%
  Herbicidal rate (%) Monochoria vaginalis: 80%
[7]
  Herbicidal rate (%) Scirpus juncoides: 80%
[8]
  Herbicidal rate (%) Echinochloa crus-galli: 90%
[9]
  Herbicidal rate (%) Lindernia pyxidaria: 60%
  Herbicidal rate (%) Monochoria vaginalis: 90%
[10]
  Herbicidal rate (%) Scirpus juncoides: 90%

## Cc1c(Cc2ccccc2NS(=O)(=O)C(F)(F)F)c(=O)on1S(=O)(=O)C(C)C [Compound 1-251]
[1]
  herbicidal rate, Echinochloa crus-galli: 100%
[2]
  herbicidal rate, southern crabgrass: 80%
[3]
  herbicidal rate, Amaranthus viridis: 80%
[4]
  herbicidal rate, Chenopodium album: 80%
[5]
  Herbicidal rate (%) Echinochloa crus-galli: 100%
[6]
  Herbicidal rate (%) Lindernia pyxidaria: 90%
  Herbicidal rate (%) Monochoria vaginalis: 100%
[7]
  Herbicidal rate (%) Scirpus juncoides: 80%
[8]
  Herbicidal rate (%) Echinochloa crus-galli: 50%
[9]
  Herbicidal rate (%) Lindernia pyxidaria: 50%
  Herbicidal rate (%) Monochoria vaginalis: 80%
[10]
  Herbicidal rate (%) Scirpus juncoides: 90%

## Cc1c(Cc2ccccc2N(C(=O)c2ccccc2)S(=O)(=O)C(F)(F)F)c(=O)on1C(C)C [Compound 1-472]
[1]
  herbicidal rate, Echinochloa crus-galli: 90%
[2]
  herbicidal rate, southern crabgrass: 70%
[3]
  herbicidal rate, Amaranthus viridis: 0%
[4]
  herbicidal rate, Chenopodium album: 50%
[5]
  Herbicidal rate (%) Echinochloa crus-galli: 90%
[6]
  Herbicidal rate (%) Lindernia pyxidaria: 90%
  Herbicidal rate (%) Monochoria vaginalis: 60%
[7]
  Herbicidal rate (%) Scirpus juncoides: 90%
[8]
  Herbicidal rate (%) Echinochloa crus-galli: 90%
[9]
  Herbicidal rate (%) Lindernia pyxidaria: 80%
  Herbicidal rate (%) Monochoria vaginalis: 90%
[10]
  Herbicidal rate (%) Scirpus juncoides: 90%

## CCCOC(=O)N(c1ccccc1Cc1c(C)n(C(C)(C)C)oc1=O)S(=O)(=O)C(F)(F)F [Compound 1-631]
[1]
  herbicidal rate, Echinochloa crus-galli: 90%
[2]
  herbicidal rate, southern crabgrass: 90%
[3]
  herbicidal rate, Amaranthus viridis: 90%
[4]
  herbicidal rate, Chenopodium album: 90%
[5]
  Herbicidal rate (%) Echinochloa crus-galli: 90%
[6]
  Herbicidal rate (%) Lindernia pyxidaria: 90%
  Herbicidal rate (%) Monochoria vaginalis: 90%
[7]
  Herbicidal rate (%) Scirpus juncoides: 90%
[8]
  Herbicidal rate (%) Echinochloa crus-galli: 90%
[9]
  Herbicidal rate (%) Lindernia pyxidaria: 90%
  Herbicidal rate (%) Monochoria vaginalis: 90%
[10]
  Herbicidal rate (%) Scirpus juncoides: 90%
